Results reported in patent US12576040B2, “Ionizable lipids and methods of manufacture and use thereof” (priority 2020, dated 2026).

Tested on: not given
Experiment: not given
Assay type: physicochemical
Conditions: Table 11a
Description: In certain embodiments, the pKa of the Ionizable Lipids of the Invention included in the LNP is measured by fluorescent enhancement of an anionic lipophilic dye TNS binding to the LNP containing the ionizable lipid. Prior studies have shown that the TNS pKa needs to be near 6.5 for efficient delivery to liver upon IV administration. The pKa in the aqueous phase can be predicted by software such ACDLabs Percepta, resulting in pKas that are higher than the TNS pKa. Given the importance of the LNP pKa in determining their efficiency, we developed new methods (zeta potential, ^1H NMR, modeling) to link the intrinsic pKa of the ionizable lipid to LNP ionization properties, in order to rationally design effective systems for mRNA delivery.
In certain embodiments, the hydrophilic DMG-PEG forms the shell of the LNP. The amount of nucleic acid is represented by the NP mole ratio of the amine on the ionizable lipid to the phosphate groups on the nucleic acid backbone and is typically 3-6. In certain embodiments, the pKa of the LNP to be in the 6-7 range corresponding to the pH in the early endosome. […] The pKa of the LNP was measured using the pH-dependence of fluorescence enhancement of the anionic dye TNS. In certain embodiments, the pKa-dependent endosomal release mechanism was described as an ion-pairing event between the cationic protonated ionizable lipid and anionic endosomal phospholipids where a divergent cone-shape lipid tail of the ionizable lipid facilitates membrane rupture.

Row | Compound | ΔpKa = Classic-Galas | ΔpKa = Classic-TNS
1 | CCCCC/C=C\C/C=C\CCCCCCCCC1(CCCCCCCC/C=C\C/C=C\CCCCC)OCC(CCN(C)C)O1 (centres unmarked) [KC2] | 2.32 | 2.62
2 | CCCCC/C=C\C/C=C\CCCCCCCCOCC(CN(C)C)OCCCCCCCC/C=C\C/C=C\CCCCC (centres unmarked) [DLinDMA, 1,2-dilinoleyloxy-N,N-dimethylaminopropane] | 1.6 | 1.8
3 | CCCCCCCCCOC(=O)CCCCCCCN(CCO)CCCCCCCC(=O)OC(CCCCCCCC)CCCCCCCC [Moderna Lipid 5] | 3.34 | 2.34
4 | CCCCCCCC(=O)N(CCCN(C)C)C(CCCCCCCCC(=O)OC(CCCCCC)CCCCCC)CCCCCCCCC(=O)OC(CCCCCC)CCCCCC [Acuitas Compound 10] | 3.04 | 3.24

Tested on: HEK 293 cells
Experiment: Firefly Luciferase Assay for mRNA Delivery Efficiency / transfection in vitro
Assay type: cell-based
Set-up: key: +: successfully transfected HEK 293 cells in vitro; −: not active
Conditions: Table 12; HEK 293 cells in vitro
Description: FIG. 32 illustrates luciferase reported expression in vitro and in vivo.
In certain embodiments, the invention encompasses a new class of ionizable lipids (the Ionizable Lipids of the Invention) synthesized bearing two ionizable amines and two degradable ester linkers to linoleic acid tails or branched tails. DL=DiLinoleic Acid, ADDE=Azane Diyl DiEthyl, Cx/Cy=carbon spacers, DMA=DiMethylAmine, Pyr=Pyridine, PipZ=PiperaZine, PipD=PiperiDine, DIPA=DiIsopropylamine, DM=DiMethyl, BOD=BisOctylDecyl.
Summary: LNPs were formulated using total lipid concentration of 50 mM comprised of ionizable lipids/DSPC/Cholesterol/PEG-DMG (50:10:38.5:1.5 mol %). Each one of the lipids were solubilized in ethanol until a clear solution was observed. The four lipids were combined to get 50 mM total lipid concentration (25/5/19.25/0.75 mM respectively) and serial dilutions to get 27.74 mM. […] Purified mRNA was ethanol precipitated, washed and resuspended in nuclease-free water to reach a concentration of 1 mg/ml. […] 16 μl Lipid Mix and 32 μl mRNA solution were mixed on Setting 3 and ejected into 48 μl 1×DPBS pH 7.4. The formed LNPS were then diluted into an additional 96 μl 1×DPBS pH 7.4. LNPs were then dialyzed against 1×DPBS pH 7.4 for 6×1 hr. LNPs were then diluted so that 32 ul contained 200 ng and 12K HEK293 cells were transfected with the same […]. • A: Firefly Luciferase Assay for mRNA Delivery Efficiency. After 24 hours of transfection, transfected cells were conditioned to room temperature for 30 minutes prior to the Firefly Luciferase Assay. Quantilum Recombinant Luciferase standard curve was prepared in 10% EMEM in 5-fold serial dilutions. 50 ul of each standard point from the range of 3.9×10^−5 mg/ml to 4.88×10^−3 mg/ml were included in the microplate as a positive enzyme activity control (data not shown) to maintain a linearity of 10^7 RLU/mg/ml. The ONE-Glo substrate, previously conditioned to room temperature for at least 4 hours, was added to each untransfected, transfected and Quantilum wells in a ratio 1:1. Assay plates were incubated for 3 minutes in darkness and immediately introduced into the Cytation 5 Cell Imaging Multi-Mode Reader (Biotek) to read luminescence. The results are illustrated in FIG. 7. • B: Ribogreen Assay for mRNA Encapsulation Efficiency. 1×TE Buffer and Triton Buffer (2% v/v in 1×TE Buffer) were added in duplicates into a black microplate per LNP. LNPs were diluted to 4 ng/ul in 1×DPBS pH 7.4 and added to each TE/Triton well in a ratio 1:1. Two standard curves were included in the Ribogreen Assay, one containing mRNA and 1×TE Buffer and other containing mRNA and Triton Buffer. Each one of these standard curves were used to calculate the mRNA concentration in each TE Buffer or Triton Buffer. This approach using two standard curves is more accurate for calculating the encapsulation efficiency and mRNA concentrations, in comparison to a single standard curve. Standards were included in the microplate after diluted LNPs were added to the plate. Microplates were incubated at 37° C. for 10 minutes to extract LNPs with Triton. Ribogreen reagent was diluted 1:100 in 1×TE Buffer and added to each well in a ratio 1:1. Microplates were immediately introduced into the Cytation 5 Cell Imaging Multi-Mode Reader (Biotek) to read Fluorescence (Ex485/Em528). The results are illustrated in FIG. 8. • C: Dynamic Light Scattering for LNP Size (red dots are PDI right y axis). LNPs were diluted to 6.25 ng/ul in 1×DPBS pH 7.4 and transferred into a quartz cuvette (ZEN2112) to measure size by Dynamic Light Scattering (DLS) in the Zetasizer Nano ZS (Malvern Panalytical) using particle RI of 1.45 and Absorption of 0.001 in 1×PBS at 25° C. with viscosity of 1.02 cP and RI of 1.335.

Row | Compound | Transfection +/−
5 | CCCCC/C=C\C/C=C\CCCCCCCCOC(=O)CCN(CCN)CCC(=O)OCCCCCCCC/C=C\C/C=C\CCCCC (racemic) [DL-ADDE-C2/C2-DeBocA] | −
6 | CCCCCCCCCCC(CCCCCCCC)COC(=O)CCN(CCCCN1CCN(C)CC1)CCC(=O)OCC(CCCCCCCC)CCCCCCCCCC (centres unmarked) [BOD-ADDE-C2/C4-4-Me-PipZ] | +
7 | CCCCC/C=C\C/C=C\CCCCCCCCOC(=O)CCN(CCC(=O)OCCCCCCCC/C=C\C/C=C\CCCCC)CC(C)(C)CN(C)C (racemic) [DL-ADDE-C2/C3-DM-DMA] | −
8 | CCCCC/C=C\C/C=C\CCCCCCCCOC(=O)CCN(CCCN1CCCC1)CCC(=O)OCCCCCCCC/C=C\C/C=C\CCCCC (racemic) [DL-ADDE-C2/C3-Pyr] | +
9 | CCCCC/C=C\C/C=C\CCCCCCCCOC(=O)CCN(CCCCN1CCN(C)CC1)CCC(=O)OCCCCCCCC/C=C\C/C=C\CCCCC (racemic) [DL-ADDE-C2/C4-4Me-PipZ] | +
10 | CCCCC/C=C\C/C=C\CCCCCCCCOC(=O)CCN(CCCN(C)C)CCC(=O)OCCCCCCCC/C=C\C/C=C\CCCCC (racemic) [DL-ADDE-C2/C3-DMA] | +
11 | CCCCC/C=C\C/C=C\CCCCCCCCOC(=O)CCN(CCCN1CCN(C)CC1)CCC(=O)OCCCCCCCC/C=C\C/C=C\CCCCC (racemic) [DL-ADDE-C2/C3-4Me-PipZ] | +
12 | CCCCCCCCCCC(CCCCCCCC)COC(=O)CCN(CCC(=O)OCC(CCCCCCCC)CCCCCCCCCC)CCN1CCN(C)CC1 (centres unmarked) [BODD-ADDE-C2/C2-4Me-PipZ] | +
13 | CCCCC/C=C\C/C=C\CCCCCCCCOC(=O)CCN(CCCCN(C)C)CCC(=O)OCCCCCCCC/C=C\C/C=C\CCCCC (racemic) [DL-ADDE-C2/C4-DMA] | +
14 | CCCCC/C=C\C/C=C\CCCCCCCCOC(=O)CCCCN(CCCCC(=O)OCCCCCCCC/C=C\C/C=C\CCCCC)CCCCN(C)C (racemic) [DL-ADDE-C4/C4-DMA] | +
15 | CCCCC/C=C\C/C=C\CCCCCCCCOC(=O)CCCCN(CCCCC(=O)OCCCCCCCC/C=C\C/C=C\CCCCC)CCCCN1CCN(C)CC1 (racemic) [DL-ADDE-C4/C4-4Me-PipZ] | +
16 | CCCCC/C=C\C/C=C\CCCCCCCCOC(=O)CCN(CCC(=O)OCCCCCCCC/C=C\C/C=C\CCCCC)CCN(C(C)C)C(C)C (racemic) [DL-ADDE-C2/C2-DIPA] | −
17 | CCCCC/C=C\C/C=C\CCCCCCCCOC(=O)CCN(CCC(=O)OCCCCCCCC/C=C\C/C=C\CCCCC)CCN1CCCCC1 (racemic) [DL-ADDE-C2/C2-PipD] | +
18 | CCCCC/C=C\C/C=C\CCCCCCCCOC(=O)CCN(CCC(=O)OCCCCCCCC/C=C\C/C=C\CCCCC)CCN1CCN(C)CC1 (racemic) [DL-ADDE-C2/C2-4Me-PipZ] | +
19 | CCCCC/C=C\C/C=C\CCCCCCCCOC(=O)CCN(CCNC(=O)OC(C)(C)C)CCC(=O)OCCCCCCCC/C=C\C/C=C\CCCCC (racemic) [DL-ADDE-C2/C2-BocA] | −
20 | CCCCC/C=C\C/C=C\CCCCCCCCOC(=O)CCCCN(CCCCC(=O)OCCCCCCCC/C=C\C/C=C\CCCCC)CCCCN1CCCCC1 (racemic) [DL-ADDE-C4/C4-PipD] | +
21 | CCCCC/C=C\C/C=C\CCCCCCCCOC(=O)CCN(CCC(=O)OCCCCCCCC/C=C\C/C=C\CCCCC)CCN(C)C (racemic) [DL-ADDE-C2/C2-DMA] | +

Same assay, conditions: Table 13A

Row | Compound | Transfection +/−
22 | CCCCC/C=C\C/C=C\CCCCCCCCOC(=O)CCN(CCCO)CCC(=O)OCCCCCCCC/C=C\C/C=C\CCCCC (racemic) [DL-ADDE-PA] | −
23 | CCCCC/C=C\C/C=C\CCCCCCCCOC(=O)CCN(CCO)CCC(=O)OCCCCCCCC/C=C\C/C=C\CCCCC (racemic) [DL-ADDE-EA] | −
24 | CCCCC/C=C\C/C=C\CCCCCCCCOC(=O)CCN(CCC(=O)OCCCCCCCC/C=C\C/C=C\CCCCC)CCC(C)C (racemic) [DL-ADDE-IP] | −

Same assay, conditions: Table 13C

Row | Compound | Transfection +/−
25 | CCCCC/C=C\C/C=C\CCCCCCCC(=O)NCCSSCCN [L-Amide-AEDS] | −
26 | CCCCC/C=C\C/C=C\CCCCCCCC(=O)NCCN(C)C [L-Amide-DMA] | −
27 | CCCCC/C=C\C/C=C\CCCCCCCC(=O)NCCN [L-Amide-AE] | −

Tested on: not listed separately
Experiment: physchem
Assay type: physicochemical
Conditions: not given
Description: The pH-dependence of proton NMR chemical shifts was used to measure the pKa's of the ionizable lipid water-soluble analogues (WSA) following published methods5,6. Chemical shifts of piperazine, imidazole, 2-chloroacetic acid and acetic acid were used as internal pH indicators. Solutions for MC3-WSA were prepared with 100 mM KCl, 2 mM piperazine, 2 mM imidazole, and 5 mM water soluble ionizable lipid analogue in 95% H2O-5% D2O. Solutions for the terminal(N1) and aza amines(N2) at the p-position of carboxylic esters of C24-WSA were prepared with 100 mM KCl, 2 mM piperazine, 2 mM imidazole, 0.2 mM DSS, and 5 mM water soluble ionizable lipid analogue in 95% H2O-5% D2O. Solutions for the internal amine (N3) of C24-WSA were prepared with 100 mM KCl, 2 mM chloroacetic acid, 2 mM acetic acid, 0.2 mM DSS, and 5 mM water soluble ionizable lipid analogue in 95% H2O-5% D2O. Solutions were split into two equal volumes and one titrated to a lower pH using 0.1 M HCl and the other to an upper pH using 0.1 M NaOH where the lower and upper pH bracketed the desired range of pH. Intermediate pH values were obtained by mixing different proportions of these two solutions. NMR measurements were performed on a Bruker 400 MHz spectrometer where 1H spectra were acquired at each of ˜24 pH values ranging from the lower to upper pH. […] Chemical shifts from piperazine, imidazole, 2-chloroacetic acid, and acetic acid were then used to calculate the pH of each solution according to published methods5,6 and the chemical shifts of protons adjacent to each nitrogen in the ionizable lipid water sluble analogue headgroup were fit to the Henderson-Hasselbalch equation to provide the pKa of each Nitrogen. Spectra are in Supplementary FIG. 2.

Row | Compound | difference between NMR-measured and theoretical pKas
28 | CCCCCCCCCCC(CCCCCCCC)COC(=O)CCN(CCCCN1CCN(C)CC1)CCC(=O)OCC(CCCCCCCC)CCCCCCCCCC (centres unmarked) [Lipid C24, Bis(2-octyldodecyl) 3,3′-((4-(4-methylpiperazin-1-yl)butyl)azanediyl)dipropionate] | ≤ 0.4 units
